# Test results taken from ChEMBL document CHEMBL1147304, “Antioxidant metabolites from the tunicate Amaroucium multiplicatum” (J Nat Prod, 1989).
# Columns and labels:
# [1] = test system: Liver microsomes; assay: Antioxidant activity in rat liver microsomes assessed as inhibition of lipid peroxide formation after 30 mins; format: functional, Microsome
# [2] = Inhibition of soybean arachidonate 15-lipoxygenase by oxygen electrode method; set-up: species or system Glycine max
IC50 [1] [µg/mL],IC50 [2] [µg/mL],Compound
0.1,0.2,CC(C)=CCC/C(C)=C/Cc1cc(O)ccc1O [GEROQUINOL]
0.3,3,CC(C)=CCCC(C)(O)CCc1cc(O)ccc1O (stereo not drawn)
0.3,–,CC(C)=CCCC(C)(O)/C=C/c1cc(O)ccc1O (stereo not drawn)
0.1,0.5,COc1cc2c(cc1O)C=CC(C)(CCC=C(C)C)O2 (stereo not drawn)
0.3,> 10,Cc1cc(C(C)(C)C)c(O)c(C(C)(C)C)c1 [BUTYLATED HYDROXYTOLUENE]
> 10,> 10,CC(=O)Oc1c(C)c(C)c2c(c1C)CCC(C)(CCC[C@H](C)CCC[C@H](C)CCCC(C)C)O2 (stereo partly drawn) [TOCOPHEROL ACETATE]
0.3,0.2,CC(C)=CCCC1(C)C=Cc2cc(O)ccc2O1 (stereo not drawn) [CORDIACHROMENE A]
